From ChEMBL document CHEMBL3822392, “Design, synthesis and apoptosis inducing effect of novel (Z)-3-(3'-methoxy-4'-(2-amino-2-oxoethoxy)-benzylidene)indolin-2-ones as potential antitumour agents” (Eur J Med Chem, 2016) come the findings set out here.

pIC50: −log10 of the molar value. Activity calls are given as the source filed them. The calls are words filed in the database; no cut-off is given here.

Experiment [1] in a line: Cytotoxicity against human PC3 cells after 48 hrs by MTT assay. It counts as functional, cell-based. As to conditions: PC-3, 48 h. (In general: Formazan colour is commonly taken as a measure of viable cells.)
Experiment [2] is described as follows: Cytotoxicity against human BT549 cells after 48 hrs by MTT assay. It counts as functional, cell-based. As to conditions: BT-549, 48 h.
The test system of the next experiment is MDA-MB-231. Kind of experiment: cells. As to conditions: Homo sapiens, MDA-MB-231, 48 h.
Experiment [3] can be described thus: Cytotoxicity against human RWPE1 cells after 48 hrs by MTT assay. It counts as cell-based. As to conditions: RWPE-1, 48 h.
The nature of experiment [4]: Cytotoxicity against human DU145 cells after 48 hrs by MTT assay. The format is functional, cell-based. The note with it: DU-145, 48 h.
The subject of experiment [5] is PC-3. Kind of experiment: Induction of apoptosis in human PC3 cells assessed as nuclear fragmentation after 24 hrs by Hoechst […] staining-based confocal fluorescence microscopic analysis. The format is functional, cell-based.
Experiment [6] can be described thus: Disruption of mitochondrial membrane potential in human PC3 cells at 1 to 4 uM after 24 hrs by Rhodamine123 staining-based spectrofluorimetric analysis relative to control. It counts as functional, PC-3.
Experiment [7] concerns PC-3. Kind of experiment: Disruption of mitochondrial membrane potential in human PC3 cells after 24 hrs by Rhodamine123 staining-based spectrofluorimetric analysis relative to control. The format is functional, cell-based.
A short description of experiment [8]: Induction of apoptosis in human PC3 cells assessed as upregulation of Bax expression after 24 hrs by Western blot analysis. The format is functional, cell-based. As to conditions: PC-3. (In general: Immunoblotting shows a protein as a band on a membrane.)
The nature of experiment [9]: Cytotoxicity against human PC3 cells assessed as cell viability at 2 uM after 48 hrs by trypan blue assay. It counts as functional. As to conditions: PC-3, 48 h, read-out: Activity.
Experiment [10] deals with PC-3. The experiment in a line: Induction of apoptosis in human PC3 cells assessed as live cells at 4 uM after 24 hrs by Annexin V/FITC staining-based flow cytometric analysis (reference value: 85.7%). The format is functional. (In general: In flow cytometry, cells or beads pass a laser one at a time.)
The nature of experiment [11]: Cell cycle arrest in human PC3 cells assessed as accumulation at G0/G1 phase at 2 uM after 24 hrs by propidium iodide staining-based flow cytometry (reference value: 71.7%). It counts as functional. As to conditions: PC-3.
Experiment [12] deals with PC-3. Kind of experiment: Induction of apoptosis in human PC3 cells assessed as downregulation of Bcl2 expression after 24 hrs by Western blot analysis. The format is functional, cell-based.
Experiment [13] deals with PC-3. The experiment in a line: Antimigratory activity in human PC3 cells at 1 to 2 uM after 48 hrs by wound healing assay. It counts as functional, cell-based.
Experiment [14] in a line: Cell cycle arrest in human PC3 cells assessed as accumulation at G2/M phase at 4 uM after 24 hrs by propidium iodide staining-based flow cytometry (reference value: 19.2%). The format is functional. The note with it: PC-3.
A short description of experiment [15]: Antimigratory activity in human PC3 cells at 1 uM after 24 hrs by wound healing assay (reference value: 43.4%). It counts as functional, PC-3.
Experiment [16] deals with PC-3. Kind of experiment: Induction of apoptosis in human PC3 cells after 24 hrs by Annexin V/FITC staining-based flow cytometric analysis. It counts as functional, cell-based.
Experiment [17] can be described thus: Cell cycle arrest in human PC3 cells assessed as accumulation at G2/M phase at 2 uM after 24 hrs by propidium iodide staining-based flow cytometry (reference value: 19.2%). The format is functional. As to conditions: PC-3.
The test system of experiment [18] is PC-3. The experiment in a line: Increase in intracellular Ca2+ level in human PC3 cells after 24 hrs by Fura-2/AM staining-based fluorescence microscopic analysis. The format is functional, cell-based.
In experiment [19] the test system is PC-3. The experiment in a line: Antimigratory activity in human PC3 cells after 24 to 48 hrs by assay. It counts as functional, cell-based.
Experiment [20] relates to PC-3. The experiment in a line: Induction of apoptosis in human PC3 cells assessed as necrotic cells at 4 uM after 24 hrs by Annexin V/FITC staining-based flow cytometric analysis (reference value: […]). It counts as functional.
In experiment [21] the test system is PC-3. Kind of experiment: Antimigratory activity in human PC3 cells assessed as disruption of F-actin formation around nucleus at 1 to 4 uM after 12 hrs by rhodamine phalloidin/Hoechst […] staining-based confocal microscopic analysis. The format is functional, cell-based.
Experiment [22] relates to PC-3. The experiment in a line: Induction of apoptosis in human PC3 cells assessed as necrotic cells at 2 uM after 24 hrs by Annexin V/FITC staining-based flow cytometric analysis (reference value: […]). It counts as functional.
Experiment [23] relates to PC-3. Kind of experiment: Cytotoxicity against human PC3 cells assessed as cell detachment at 1 to 4 uM after 48 hrs by phase contrast microscopic analysis relative to vehicle control. It counts as functional, cell-based.
A short description of experiment [24]: Cytotoxicity against human PC3 cells assessed as cell viability at 4 uM after 48 hrs by trypan blue assay. It counts as functional. The note with it: PC-3, 48 h, read-out: Activity.
Experiment [25] deals with PC-3. The experiment in a line: Induction of apoptosis in human PC3 cells assessed as live cells at 1 uM after 24 hrs by Annexin V/FITC staining-based flow cytometric analysis (reference value: 85.7%). The format is functional.
A short description of experiment [26]: Antimigratory activity in human PC3 cells at 2 uM after 24 hrs by wound healing assay (reference value: 43.4%). It counts as functional, PC-3.
Experiment [27] deals with PC-3. The experiment in a line: Induction of apoptosis in human PC3 cells assessed as late apoptotic cells at 1 uM after 24 hrs by Annexin V/FITC staining-based flow cytometric analysis (reference value: 4.3%). It counts as functional.
Experiment [28] is described as follows: Cell cycle arrest in human PC3 cells assessed as accumulation at G2/M phase at 1 uM after 24 hrs by propidium iodide staining-based flow cytometry (reference value: 19.2%). It counts as functional. As to conditions: PC-3.
Experiment [29] concerns PC-3. The experiment in a line: Induction of apoptosis in human PC3 cells assessed as early apoptotic cells at 1 uM after 24 hrs by Annexin V/FITC staining-based flow cytometric analysis (reference value: 5.1%). It counts as functional.
A short description of experiment [30]: Cell cycle arrest in human PC3 cells assessed as accumulation at G0/G1 phase at 1 uM after 24 hrs by propidium iodide staining-based flow cytometry (reference value: 71.7%). It counts as functional. The note with it: PC-3.
Experiment [31] can be described thus: Antimigratory activity in human PC3 cells at 4 uM after 24 hrs by wound healing assay (reference value: 43.4%). The format is functional, PC-3.
Experiment [32] relates to PC-3. Kind of experiment: Induction of apoptosis in human PC3 cells assessed as late apoptotic cells at 2 uM after 24 hrs by Annexin V/FITC staining-based flow cytometric analysis (reference value: 4.3%). It counts as functional.
The test system of experiment [33] is PC-3. The experiment in a line: Induction of apoptosis in human PC3 cells assessed as early apoptotic cells at 2 uM after 24 hrs by Annexin V/FITC staining-based flow cytometric analysis (reference value: 5.1%). It counts as functional.
Experiment [34] deals with PC-3. The experiment in a line: Induction of apoptosis in human PC3 cells assessed as caspase 3 activation after 24 hrs by Western blot analysis. The format is functional, cell-based.
Experiment [35] has as its system PC-3. Kind of experiment: Induction of apoptosis in human PC3 cells assessed as chromatin condensation after 24 hrs by Hoechst […] staining-based confocal fluorescence microscopic analysis. The format is functional, cell-based.
In experiment [36] the test system is PC-3. The experiment in a line: Induction of apoptosis in human PC3 cells assessed as early apoptotic cells at 4 uM after 24 hrs by Annexin V/FITC staining-based flow cytometric analysis (reference value: 5.1%). It counts as functional.
Experiment [37] is described as follows: Cell cycle arrest in human PC3 cells assessed as accumulation at G0/G1 phase at 4 uM after 24 hrs by propidium iodide staining-based flow cytometry (reference value: 71.7%). It counts as functional. As to conditions: PC-3.
A short description of experiment [38]: Cell cycle arrest in human PC3 cells assessed as accumulation at G0/G1 phase after 24 hrs by propidium iodide staining-based flow cytometry. It counts as functional. As to conditions: PC-3.
Experiment [39] can be described thus: Cell cycle arrest in human PC3 cells assessed as accumulation at S phase at 4 uM after 24 hrs by propidium iodide staining-based flow cytometry (reference value: 9.3%). The note with it: PC-3. It counts as functional.
Experiment [40] can be described thus: Cell cycle arrest in human PC3 cells assessed as accumulation at S phase at 2 uM after 24 hrs by propidium iodide staining-based flow cytometry (reference value: 9.3%). The format is functional. The note with it: PC-3.
Experiment [41] is described as follows: Cell cycle arrest in human PC3 cells assessed as accumulation at S phase at 1 uM after 24 hrs by propidium iodide staining-based flow cytometry (reference value: 9.3%). As to conditions: PC-3. It counts as functional.
For experiment [42], the system named is PC-3. Kind of experiment: Induction of apoptosis in human PC3 cells assessed as necrotic cells at 1 uM after 24 hrs by Annexin V/FITC staining-based flow cytometric analysis (reference value: […]). It counts as functional.
Experiment [43] has as its system PC-3. The experiment in a line: Cytotoxicity against human PC3 cells assessed as cell shrinkage at 1 to 4 uM after 48 hrs by phase contrast microscopic analysis relative to vehicle control. The format is functional, cell-based.
The subject of experiment [44] is PC-3. The experiment in a line: Induction of apoptosis in human PC3 cells assessed as late apoptotic cells at 4 uM after 24 hrs by Annexin V/FITC staining-based flow cytometric analysis (reference value: 4.3%). The format is functional.
Experiment [45] relates to PC-3. Kind of experiment: Induction of apoptosis in human PC3 cells assessed as live cells at 2 uM after 24 hrs by Annexin V/FITC staining-based flow cytometric analysis (reference value: 85.7%). The format is functional.

Description for MDA-MB-231: Cytotoxicity against human MDA-MB-231 cells after 48 hrs by MTT assay

By pIC50 is commonly meant the negative decadic logarithm of the IC50, by convention in mol/L. For `COc1cc(/C=C2\C(=O)Nc3ccccc32)ccc1OCC(=O)N1CCOCC1`, the pIC50 in experiment [1] is 5.22; in experiment [2], 5.05; in the experiment with MDA-MB-231 it was 5.01; in experiment [3] it was 4.09; in experiment [4], 5.24.
`COc1cc(/C=C2\C(=O)Nc3ccccc32)ccc1OCC(=O)N1CCCC1`: the pIC50 (in experiment [1]; in experiment [2]; with MDA-MB-231; in experiment [4]) was under 4.70 in each case.
As for `COc1cc(/C=C2\C(=O)Nc3ccccc32)ccc1OCC(=O)N1CCCCC1`, the pIC50 in [1] is 5.16; in experiment [2], under 4.70; in the experiment with MDA-MB-231, 4.71; in experiment [3], 4.11; in experiment [4] it was 5.18.
The corresponding values for `CCN(CC)CCNC(=O)c1c(C)[nH]c(/C=C2\C(=O)Nc3ccc(F)cc32)c1C` [SUNITINIB] are 4.71, 4.81, 5.13, 4.64 and 4.79.
Take `COc1cc(/C=C2\C(=O)Nc3ccccc32)ccc1OCC(=O)N1CCc2ccccc21`: the Activity result is “Dose-dependent effect” in the experiment on PC-3 [5]; 19% in experiment [6]; “Dose-dependent effect” in the experiment with PC-3 [7]; “Dose-dependent effect” in [8]; 57.4% in the experiment with PC-3 [10]; 20.8% in experiment [11]. Besides, the Activity entry in the experiment on PC-3 [12] is “Dose-dependent effect”; in experiment [14], 55.7%; in [15], 37.3%; with PC-3 [16], “Dose-dependent effect”; in [17] it was 49.8%; in the experiment with PC-3 [18], “Dose-dependent effect”. The Activity result in the experiment with PC-3 [19] is “Dose-dependent effect”; with PC-3 [20], 4.4%; with PC-3 [22], 1.3%; in the experiment on PC-3 [25], 77.7%; in [26], 29.4%; with PC-3 [27] it was 8.3%. The Activity worked out at 41.6% in experiment [28]; 13.6% in the experiment on PC-3 [29]; 39.1% in experiment [30]; 7.3% in experiment [31]; 10.2% with PC-3 [32]; 17.6% in the experiment with PC-3 [33]. In addition, the Activity entry is “Dose-dependent effect” in the experiment with PC-3 [34]; “Dose-dependent effect” with PC-3 [35]; 15.8% in the experiment on PC-3 [36]; 19.4% in experiment [37]; “Dose-dependent effect” in experiment [38]; 24.2% in experiment [39]. Also, the Activity was found to be 27.6% in [40]; 18.5% in experiment [41]; 0.4% with PC-3 [42]; 22.4% in the experiment on PC-3 [44]; 70.9% in the experiment on PC-3 [45]. Moreover, the pIC50 is 5.72 in experiment [1]; 5.14 in experiment [2]; 5.20 with MDA-MB-231; under 4.00 in [3]; 5.71 in experiment [4]. The viability at 2 µM in experiment [9] stood at 53%. The outcome in the experiment on PC-3 [13], with PC-3 [21], with PC-3 [23] and in the experiment on PC-3 [43] was Active. For the same compound, the viability at 4 µM in experiment [24] was determined as 45%.
On to `COc1cc(/C=C2\C(=O)Nc3ccccc32)ccc1OCC(=O)N1CC(C)OC(C)C1` (centres undefined), for which the pIC50 (in [1]; in experiment [2]; in the experiment on MDA-MB-231; in experiment [4]) was under 4.70 each time.
